Test results taken from US20220332774A1, “THERAPEUTIC MITOCHONDRIAL PEPTIDES” (priority 2019, published 2022).

What was measured:
H4-IIE Cells = test: Glucose production in cultured H4-IIE cells; assay type: cell-based, rat; settings: glucose concentration in medium relative to untreated cells; 5 μM peptide, 24 h
Protocol: The effect of the peptides on glucose homeostasis can be assessed using an assay to monitor glucose production by cultured cells such as rat hepatocytes. Peptide arrays were initially prepared as 5 mM stock in DMSO and diluted to 0.5 mM in H2O; peptides were used at a final concentration of 5 μM (0.1% DMSO). Calculations for peptide concentrations based on approximate molecular weight of 2000 Daltons. H4-IIE rat hepatic cell line was purchased from American Type Culture Collection (Manassas, Va.). H4-IIE cells were seeded in standard medium (DMEM/high glucose+10% Fetal Bovine Serum+antibiotics) at 100,000 cells/well on 96-well plates and allowed to adhere overnight at 37° C. in a humidified atmosphere of 5% CO2/95% air. 24 h after seeding, the medium was removed, cells were rinsed with glucose free DMEM, and the medium replaced with Glucose Production Medium (glucose free DMEM+2 mM sodium pyruvate+10 mM sodium lactate+antibiotics). The cultures were placed at 37° C. in a humidified atmosphere of 5% CO2/95% air overnight. The next morning, the medium was removed and fresh Glucose Production Medium containing compounds was added; 5 uM peptide or 0.5-1 nM insulin as a potent inhibitor of glucose production. Cells were incubated for 24 h at 37° C. in a humidified atmosphere of 5% CO2/95% air. Following 24 h incubation, conditioned medium from each well was transferred to a fresh 96-well plate. Glucose concentrations in the medium were determined using a Glucose Assay kit (Abcam; Cambridge, Mass.) according to the manufacturer's instructions; absorbance measured using a Cytation 3 plate reader at 570 nm (BioTek, Winooski, Vt.). Untreated cells were used as reference for maximal glucose production. Absorbance values were expressed as percent control activity relative to untreated treated cells for 5 μM peptide. The relative standard deviation from plate to plate of untreated control was <25%. […] Glucose levels for 0.5-1 nM insulin treatment were <5% of the untreated control value. Data are presented as representative values from 2-3 independent experiments with each data point performed in triplicate in each independent experiment.

C2C12 Cells = test: Glucose utilization in cultured C2C12 cells (myotubes); assay type: cell-based, mouse; settings: glucose concentration in medium relative to untreated cells; 5 μM peptide, 22 h
Protocol: The effect of the peptides on glucose homeostasis can be assessed using an assay to monitor glucose utilization by cultured cells such as mouse myotubes. Peptide arrays were initially prepared as 5 mM stock in DMSO and diluted to 0.5 mM in H2O; peptides were used at a final concentration of 5 μM (0.1% DMSO). Calculations for peptide concentrations based on approximate molecular weight of 2000 Daltons. C2C12 mouse muscle cell line was purchased from Millipore Sigma (Saint Louis, Mo.). C2C12 cells were seeded in standard medium (DMEM/low glucose (1 g/L)+10% Fetal Bovine Serum+antibiotics) at 7,500 cells/well on 96-well plates and grown to confluence at 37° C. in a humidified atmosphere of 5% CO2/95% air. Three days after plating the medium was removed and with Differentiation Medium (DMEM/low glucose (1 g/L)+2% Horse Serum+antibiotics) added. The cultures were placed at 37° C. in a humidified atmosphere of 5% CO2/95% air for 5 days with partially replacement of medium daily. After 5 days of differentiation, the medium was removed from myotube cultures and replaced with Assay Medium (DMEM/low glucose (1 g/L)+antibiotics). Culture were placed at 37° C. in a humidified atmosphere of 5% CO2/95% air for 5 h. Following the 5 h incubation the medium was removed and fresh Assay Medium containing compounds was added; 5 μM peptide or 1 mM metformin as a potent stimulator of glucose utilization. Cells were incubated for 22 h at 37° C. in a humidified atmosphere of 5% CO2/95% air. Following 22 h incubation, conditioned medium from each well was transferred to a fresh 96-well plate. Glucose concentrations in the medium were determined using a Glucose Assay kit (Abcam; Cambridge, Mass.) according to the manufacturer's instructions; absorbance measured using a Cytation 3 plate reader at 570 nm (BioTek, Winooski, Vt.). Untreated cells were used as reference for basal glucose utilization. Absorbance values were expressed as percent control activity relative to untreated treated cells for 5 μM peptide. The relative standard deviation from plate to plate of untreated control was <10%. […] Data presented are representative values from 2-3 independent experiments with each data point performed in triplicate in each independent experiment.

3T3-L1 Mouse Adipocytes = test: Free fatty acid levels in cultured 3T3-L1 mouse adipocytes (isoproterenol stimulated); assay type: cell-based; settings: free fatty acid in medium; 5 μM peptide, 20-22 h pre-incubation then 3 h with 0.1 nM isoproterenol; isoproterenol alone = 100%
Protocol: The effect of the peptides on fatty acid metabolism can be assessed using an assay to monitor free fatty acid levels produced by cultured cells such as mouse adipocytes. Peptide arrays were initially prepared as 5 mM stock in DMSO and diluted to 0.5 mM in H2O; peptides were used at a final concentration of 5 μM (0.1% DMSO). Calculations for peptide concentrations based on approximate molecular weight of 2000 Daltons. […] Mouse 3T3-L1 cells purchased from ZenBio (Research Triangle Park, NC) were seeded at 3,000 cells per well in 96-well plates in Pre-adipocyte Medium (Zen-Bio) and grown to confluence at 37° C. in a humidified atmosphere of 5% CO2/95% air. Two days after confluence, cells were placed in Adipocyte Differentiation Medium (Zen-Bio) and cultured for three additional days at 37° C. in a humidified atmosphere of 5% CO2/95% air. The culture medium was then replaced with Adipocyte Maintenance Medium (Zen-Bio) and the cells maintained for an additional 9 days at 37° C. in a humidified atmosphere of 5% CO2/95% air with partial medium replacement every other day. Following 12 days of differentiation, medium was replaced Adipocyte Maintenance Medium without insulin and the cultures placed at 37° C. in a humidified atmosphere of 5% CO2/95% air. On day 13 of differentiation, test peptides were added directly to each well (without replacing the medium) at a final concentration of 5 μM in 0.1% DMSO and incubated for 20-22 hours at 37° C. in a humidified atmosphere of 5% CO2/95% air. […] Cells were incubated for 3 hours in Assay Buffer (Zen-Bio) at 37° C. in a humidified atmosphere of 5% CO2/95% air. Following 3 h incubation, conditioned medium from each well was transferred to a fresh 96-well plate. Free fatty acid concentrations in the medium were determined using a Free Fatty Acid Assay kit (Zen-Bio) according to the manufacturer's instructions; absorbance was measured using a Cytation 3 plate reader at 540 nm (BioTek, Winooski, Vt.). Treatment with 0.1 nM isoproterenol alone was used as the free fatty acid level stimulatory control. Absorbance values were expressed as percent control activity relative to 0.1 nM isoproterenol alone treated cells, 100%. The relative standard deviation of the isoproterenol control was <10%. Insulin at 0.25 nM was used as a potent control for decreasing free fatty acid levels. […] Data presented are representative values from 2 independent experiments with each data point performed in triplicate in each independent experiment.

| Substance | Percent of Control Activity (H4-IIE Cells) [%] | Percent of Control Activity (C2C12 Cells) [%] | Percent of Isoproterenol Control Activity (3T3-L1 Mouse Adipocytes) [%] |
| --- | --- | --- | --- |
| 50 (MHQSCKPEMKTFFQGQI) [compound 50] | 106 | 99 | 100 |
| 51 (MIEMGASFCHV) [compound 51] | 111 | 103 | 89 |
| 52 (MITVPAHKGMAMA) [compound 52] | 107 | 104 | 92 |
| 53 (MIYVSSDVGDWWKGGWGVWWVVHG) [compound 53] | 115 | 101 | 91 |
| 54 (MKFEIWLGWC) [compound 54] | 113 | 103 | 104 |
| 55 (MKHRQVLWVLSCGS) [compound 55] | 118 | 103 | 98 |
| 56 (MKNHRCISTT) [compound 56] | 112 | 104 | 89 |
| 57 (MKPFTVHSTLQSNPFSSPWMTPL) [compound 57] | 112 | 107 | 102 |
| 58 (MKPMSPMRLY) [compound 58] | 112 | 101 | 105 |
| 59 (MKSPSTLTTQSKTPSAYFSSFSP) [compound 59] | 108 | 108 | 100 |
| 60 (MLEIVMGMETYHMSNA) [compound 60] | 105 | 101 | 94 |
| 61 (MLFMRGNAMSGAPII) [compound 61] | 107 | 104 | 86 |
| 62 (MLGVVGWCRL) [compound 62] | 106 | 91 | 94 |
| 65 (MLKPETSSDSPSA) [compound 65] | 102 | 99 | 99 |
| 66 (MLLGWRFQLGAWVGGLQ) [compound 66] | 101 | 101 | 104 |
| 67 (MLLMWWVSEPHCVVVNM) [compound 67] | 107 | 88 | 116 |
| 68 (MLLNSHRCSMSKDNHHSP) [compound 68] | 105 | 99 | 99 |
| 69 (MLMVEWWLGWLHM) [compound 69] | 111 | 107 | 104 |
| 70 (MLNWSNNLTNGTSYP) [compound 70] | 105 | 118 | 110 |
| 71 (MLPLHIYHNTMGLTHPPH) [compound 71] | 107 | 105 | 89 |
| 72 (MLQGQAHLSILFSI) [compound 72] | 107 | 97 | 96 |
| 73 (MLRSMLWNLWSKPQFHAHRP) [compound 73] | 111 | 111 | 98 |
| 75 (MLTPGLVNFVPATAVTRLTQVN) [compound 75] | 112 | 100 | 79 |
| 78 (MMAHLGKKPVSGG) [compound 78] | 114 | 106 | 96 |
| 79 (MMCLRFRWCGLWS) [compound 79] | 116 | 94 | 90 |
| 80 (MMDPEHMNSMALKKAWVQMC) [compound 80] | 111 | 99 | 87 |
